Assay results reported in patent US9834514B2, “Antibiotic sensitivity-restoring and photosensitive agents” (New Mexico Tech Research Foundation, priority 2015, dated 2017).
Values after ≈ are worked out from the molar mass of the structure shown. Like-named read-outs stand apart in the source and are kept apart here. Marks after values point to notes of the source that are not given here.

Assays:
HeLa cells = test: Toxicity (IC50) on HeLa cells; type: cell-based, human; conditions: cancerous cervical epithelium HeLa cells; for IC50: Homo sapiens
Protocol: The toxicities of the compounds of the invention were determined for human cancerous cervical epithelium HeLa and normal lung fibroblast WI38 cells. The toxicities of EPIs INF-55 and INF-55Cl were quantified as controls. […] TABLE 2 compares the toxicity of compounds 7-11 on HeLa cells and normal WI38 cells.

VRE = test: MIC against VRE; type: cell-based, Enterococcus faecalis
Protocol: In a 12×75 mm borosilicate glass culture tube, 1 mL of cell suspension was added. Then, compound 7 was added to the cells, and the samples were mixed using a vortex mixer. […] The samples were incubated overnight at 37° C. on a rotary shaking incubator at 100 rpm.

S. aureus (ATCC 29213) = test: MIC against drug sensitive S. aureus; type: cell-based; conditions: Staphylococcus aureus
[1] = MIC against MRSA isolates; type: cell-based, S. aureus; conditions: Staphylococcus aureus
Protocol: (§1) The MICs of S. aureus ATCC 33591, BAA-44, BAA-1707, BAA-1717, BAA-1720, BAA-1747, BAA-1754, BAA-1761, BAA-1763, BAA-1764, and BAA-1766 were measured using a cell concentration of about 5×10^5 colony forming units (CFU)/mL. In a 96-well microtiter plate, two-fold dilutions were made of each drug (starting with 100 μM) in 100 μL of a cell suspension in trypticase soy broth (TSB). The samples were incubated overnight at 37° C. on a rotary shaking incubator set at 100 revolutions per minute (rpm) and were visually inspected for turbidity. A 20% well-volume of 3-(4,5-dimethylthiazol-2-yl)-2,5-diphenyltetrazolium bromide (MTT reagent, 5 mg/mL) was added, and the samples were incubated for about 20 minutes. The MICs were determined as the lowest concentration at which full visual inhibition was observed by the unaided eye.

[2] = test system: MRSA isolates (S. aureus ATCC 33591, BAA-44, BAA-1707, BAA-1717, BAA-1720, BAA-1747, BAA-1754, BAA-1761, BAA-1763, BAA-1764, BAA-1766); test: MIC against MRSA isolates; type: cell-based
Protocol: as §1

MRSA = test: Minimum bactericidal concentration (MBC) with and without white light; type: cell-based, S. aureus; conditions: Staphylococcus aureus, light or radiation study
Protocol: The bacterial media was inoculated with bacteria and incubated overnight. The bacterial cultures were diluted to 5×10^8 CFU/mL using a McFarland latex turbidity standard (0.5). Compound 1 was diluted with sterile DMSO, which was added to the cell suspension in glass culture tubes. The cells were then incubated for 30 minutes at 37° C. on a rotary shaking incubator at 150 rpm. 500 μL of the treated cell suspension was added to a well on a sterile ceramic drop plate. Non-coherent white light from a Lumacare™ LC-122 unit was used to irradiate the samples. The end of the light probe was placed 3 cm above the sample well, perpendicular to the surface of the sample, and light was applied for 2 minutes (15 seconds light, 15 seconds dark). 200 μL of the irradiated sample was transferred to a 96-well plastic microtiter plate and five ten-fold dilutions were made in the media. 10 μL of each dilution was dripped onto an agar media plate and was allowed to streak down the plate by tilting the plate down. The agar plates were incubated at 37° C. overnight and colony counts were performed to calculate the CFU/mL.
TABLE 14 details the MBC values of compounds 1-6 against MRSA with and without irradiation with white light. Irradiation involved treatment with a LumaCare™ light source at 3 cm from media for 1 min.

[3] = Enterococcus, common antibiotics, TABLE 24, read-out: MIC
[4] = ATCC29213, ATCC 29213, read-out: S. aureus MIC
[5] = Enterococcus, TABLE 23, read-out: VRE MIC
[6] = MRSA (ATCC BAA-44), TABLE 21, read-out: MRSA MIC
[7] = antibiotics, MRSA isolate ATCC 33591
[8] = antibiotics, MRSA isolate ATCC BAA-44
[9] = antibiotics, MRSA isolate ATCC BAA-1707
[10] = antibiotics, MRSA isolate ATCC BAA-1717
[11] = antibiotics, MRSA isolate ATCC BAA-1720
[12] = antibiotics, MRSA isolate ATCC BAA-1747
[13] = antibiotics, MRSA isolate ATCC BAA-1754
[14] = antibiotics, MRSA isolate ATCC BAA-1761
[15] = antibiotics, MRSA isolate ATCC BAA-1763
[16] = antibiotics, MRSA isolate ATCC BAA-1764
[17] = antibiotics, MRSA isolate ATCC BAA-1766
[18] = 1 min, LumaCare light source at 3 cm from media for 1 min, read-out: MBC with irradiation
[19] = no irradiation, read-out: MBC in the dark

For `COC(=O)n1c(Br)c(Br)c2ccccc21` [Compound 31], the “IC50 HeLa” value (HeLa cells) was “Non-Toxic”.
Work on `Clc1ccc(Sc2c(-c3ccc(Cl)cc3)[nH]c3ccc(Cl)cc23)cc1` [Compound 21] yielded an IC50 (HeLa cells) of 8.2 ± 1 µM.
`Fc1ccc2[nH]c(-c3ccc(Cl)cc3)c(Oc3ccc(Cl)cc3)c2c1` [Compound 23] showed an IC50 (HeLa cells) of 12.9 ± 3.2 µM.
`Clc1ccc(-c2cc3[nH]c4ccccc4c3cc2-c2ccc(Cl)cc2)cc1` [Compound 13] gave an IC50 (HeLa cells) of 16.4 ± 1.1 µM.
In the case of `COc1ccc2[nH]c(-c3ccc(Cl)cc3)c(Oc3ccc(Cl)cc3)c2c1` [Compound 24], the IC50 (HeLa cells) is reported as 23.9 ± 1.8 µM.
For `O=[N+]([O-])c1ccc2[nH]c(-c3ccc(Cl)cc3)cc2c1` [Compound 20], the “IC50 HeLa” value (HeLa cells) was “Non-Toxic”.
Compound `Fc1ccc(/N=N/c2c(-c3ccc(F)cc3)[nH]c3ccccc23)cc1` [Compound 29] has an IC50 (HeLa cells) of 11.6 ± 0.7 µM.
Work on `O=C(c1ccc(Cl)cc1)c1c(-c2ccc(Cl)cc2)[nH]c2ccccc12` [Compound 19] yielded an IC50 (HeLa cells) of 35.8 ± 6 µM.
For `CN(C)[C@@H]1C(O)=C(C(N)=O)C(=O)[C@@]2(O)C(O)=C3C(=O)c4c(O)cccc4[C@@](C)(O)[C@H]3C[C@@H]12` [Tetracycline], the MIC (VRE; [3]) was under 0.5 µg/mL and the S/R (VRE; TABLE 24) was “S”.
Compound `C[C@H]1c2cccc(O)c2C(=O)C2=C(O)[C@]3(O)C(=O)C(C(N)=O)=C(O)[C@@H](N(C)C)[C@@H]3[C@@H](O)[C@@H]21` [Doxycycline, reference compound] has an MIC (S. aureus (ATCC 29213); [4]) of 3.12 µg/mL (≈ 7.02 µM), an MIC (VRE; [5]) of 0.25 to 0.5 µg/mL (≈ 0.563 to 1.13 µM) and an MIC [1, 6] of 3.12 µg/mL (≈ 7.02 µM).
With Gentamycin [reference compound] the MIC [2, 7] was >100* μg/mL, the MIC [2, 8] was >200* μg/mL and the MIC [2, 9] was under 3.1 µg/mL. The MIC [2, 10] was 3.1 µg/mL, the MIC [2, 11] was under 3.1 µg/mL and the MIC [2, 12] was 6.3 µg/mL. For the same compound, the MIC [2, 13] was under 3.1 µg/mL, the MIC [2, 14] was under 3.1 µg/mL and the MIC [2, 15] was 3 to 6 µg/mL. The MIC [2, 16] was under 3.1 µg/mL and the MIC [2, 17] was 12.5* μg/mL.
Compound `Clc1cccc(/C=C/c2[nH]c3ccccc3c2/C=C/c2cccc(Cl)c2)c1` [Compound 6] has an MBC (MRSA; [18]) of 1 µM (≈ 0.39 µg/mL) and an MBC (MRSA; [19]) of 200 µM (≈ 78.1 µg/mL).
`Cc1onc(-c2c(Cl)cccc2Cl)c1C(=O)N[C@@H]1C(=O)N2[C@@H]1SC(C)(C)[C@@H]2C(=O)O` [Dicloxicillin, reference compound] showed an MIC (S. aureus (ATCC 29213); [4]) of 50 to 100 µg/mL (≈ 106 to 213 µM) and an MIC (VRE; [5]) of 4 µg/mL (≈ 8.5 µM).
In the case of `O=[N+]([O-])c1ccc2[nH]c(-c3ccccc3)cc2c1` [INF-55, reference compound], the “IC50 HeLa” value (HeLa cells) is reported as “Non-Toxic”.
In the case of `CN[C@H](CC(C)C)C(=O)N[C@H]1C(=O)N[C@@H](CC(N)=O)C(=O)N[C@H]2C(=O)N[C@H]3C(=O)N[C@H](C(=O)N[C@H](C(=O)O)c4cc(O)cc(O)c4-c4cc3ccc4O)[C@H](O)c3ccc(c(Cl)c3)Oc3cc2cc(c3O[C@@H]2O[C@H](CO)[C@@H](O)[C@H](O)[C@H]2O[C@H]2C[C@](C)(N)[C@H](O)[C@H](C)O2)Oc2ccc(cc2Cl)[C@H]1O` [Vancomycin, reference compound], the MIC (S. aureus (ATCC 29213); ATCC29213, read-out: S. aureus MIC) is reported as 2 µg/mL (≈ 1.38 µM), the MIC (VRE; Enterococcus) is reported as 64 µg/mL (≈ 44.2 µM) and the MIC (VRE; Enterococcus, read-out: VRE MIC) is reported as over 40 µg/mL. The S/R (VRE; TABLE 24) was “R”, the MIC [1, 7] was under 3.1 µg/mL and the MIC [1, 8] was 3.1 µg/mL (≈ 2.14 µM). For the same compound, the MIC [1, 9] was under 3.1 µg/mL, the MIC [1, 10] was under 1.6 µg/mL and the MIC [1, 11] was under 3.1 µg/mL. For the same compound, the MIC [1, 12] was under 3.1 µg/mL, the MIC [1, 13] was under 3.1 µg/mL and the MIC [1, 14] was under 3.1 µg/mL. For the same compound, the MIC [1, 15] was under 3.1 µg/mL, the MIC [1, 16] was under 3.1 µg/mL and the MIC [1, 17] was under 3.1 µg/mL. It also gave an MIC ([1]; read-out: MRSA MIC, MRSA (ATCC BAA-44), TABLE 21) of 3.12 µg/mL (≈ 2.15 µM).
Work on `COc1ccc(/C=C/c2[nH]c3ccccc3c2/C=C/c2ccc(OC)cc2)cc1` [Compound 3] yielded an MBC (MRSA; [18]) of 0.5 µM (≈ 0.191 µg/mL) and an MBC (MRSA; [19]) of 200 µM (≈ 76.3 µg/mL).
In the case of Penicillin [reference compound], the MIC ([2]; Penicillin, MRSA isolate ATCC BAA-44) is reported as 1.6* mg/mL and the MIC ([2]; Penicillin, MRSA isolate ATCC BAA-1717) is reported as 1* mg/mL.
Work on `Clc1ccc(/N=N/c2c(-c3ccc(Br)cc3)[nH]c3ccccc23)cc1` [Compound 27] yielded an IC50 (HeLa cells) of 12.5 ± 0.2 µM.
With `Fc1cccc2c(Oc3ccc(Cl)cc3)c(-c3ccc(Cl)cc3)[nH]c12` [Compound 25] the IC50 (HeLa cells) was 13 ± 3.5 µM.
For `CC[C@H]1OC(=O)[C@H](C)[C@@H](O[C@H]2C[C@@](C)(OC)[C@@H](O)[C@H](C)O2)[C@H](C)[C@@H](O[C@@H]2O[C@H](C)C[C@H](N(C)C)[C@H]2O)[C@](C)(O)C[C@@H](C)C(=O)[C@H](C)[C@@H](O)[C@]1(C)O` [Erythromycin, reference compound], the MIC (VRE; [3]) was over 32 µg/mL, the S/R (VRE; TABLE 24) was “R” and the MIC [1, 8] was over 1000 µg/mL. The MIC [1, 10] was 30 µg/mL (≈ 40.9 µM).
With `Clc1ccc(Oc2c(-c3ccc(Cl)cc3)[nH]c3ccc(Br)cc23)cc1` [Compound 22] the IC50 (HeLa cells) was 3.2 ± 0.4 µM.
`CCOC(=O)c1ccc2[nH]c(-c3ccc(Cl)cc3)c(Oc3ccc(Cl)cc3)c2c1` [Compound 26] gave an IC50 (HeLa cells) of 18.6 ± 1.1 µM.
In the case of `Clc1ccc(Sc2c(-c3ccc(Cl)cc3)[nH]c3ccccc23)cc1` [Compound 16], the IC50 (HeLa cells) is reported as 6.4 ± 1 µM.
With `CC1(C)S[C@@H]2[C@H](NC(=O)Cc3ccccc3)C(=O)N2[C@H]1C(=O)O` [Penicillin G] the S/R (VRE; TABLE 24) was “S” and the MIC (VRE; common antibiotics, TABLE 24) was 2 µg/mL (≈ 5.98 µM).
In the case of `O=S(=O)(c1ccc(Cl)cc1)c1c(-c2ccc(Cl)cc2)[nH]c2ccccc12` [Compound 18], the IC50 (HeLa cells) is reported as 14.3 ± 0.7 µM.
`Clc1ccccc1/C=C/c1[nH]c2ccccc2c1/C=C/c1ccccc1Cl` [Compound 5] gave an MBC (MRSA; [18]) of 0.5 µM (≈ 0.195 µg/mL) and an MBC (MRSA; [19]) of 200 µM (≈ 78.1 µg/mL).
Work on `Clc1ccc(Sc2c(-c3ccc(Br)cc3)[nH]c3ccccc23)cc1` [Compound 14] yielded an IC50 (HeLa cells) of 12.2 ± 1.6 µM.
With `Brc1ccc(/N=N/c2c(-c3ccc(Br)cc3)[nH]c3ccccc23)cc1` [Compound 28] the IC50 (HeLa cells) was 8.6 ± 1.4 µM.
In the case of `Clc1ccc(-c2cc3ccccc3[nH]2)cc1` [Compound 15], the “IC50 HeLa” value (HeLa cells) is reported as “Non-Toxic”.
With INF-55Cl [reference compound] the “IC50 HeLa” value (HeLa cells) was “Non-Toxic”.
In the case of `C(=C\c1[nH]c2ccccc2c1/C=C/c1ccccc1)/c1ccccc1` [Compound 2], the MBC (MRSA; [18]) is reported as 0.5 µM (≈ 0.161 µg/mL) and the MBC (MRSA; [19]) is reported as 100 µM (≈ 32.1 µg/mL).
With `NC[C@H]1O[C@H](O[C@H]2[C@H](O)[C@@H](O[C@H]3O[C@H](CO)[C@@H](O)[C@H](N)[C@H]3O)[C@H](N)C[C@@H]2N)[C@H](N)C[C@@H]1O` [Tobramycin, reference compound] the MIC (S. aureus (ATCC 29213); [4]) was 0.25 µg/mL (≈ 0.535 µM), the MIC (VRE; [5]) was over 200 µg/mL and the MIC [1, 6] was over 5000 µg/mL.
